Patent US11130733B2, “4-OXO-alkylated tetramic acid compound, preparation method and use thereof” (BEIJING JOEKAI BIOTECH. LLC, priority 2017, dated 2021)

Key:
[1] = test system: Drosophilae containing and expressing human Abeta42 gene; experiment: Pavlov's olfactory-related instantaneous memory test in Drosophila; format: in vivo; settings: test medicament 100 μM, 50 μL per 100 drosophilae, 7 consecutive days; FIG. 1 and FIG. 2
From the text: Drosophila has a classical learning and memory paradigm, known as Pavlov's olfactory-related instantaneous memory. During the training program, a group of about 100 drosophilae were exposed sequentially to two odors, i.e., 3-octanol and 4-methylcyclohexanol, each odor for 60 seconds, and to fresh air for 45 seconds therebetween. During exposure to the first odor, the drosophilae were electrocuted on their feet (1.5-second pulses at 3.5-second intervals, 60V), while no electrocution was exerted during exposure to the second odor. In order to detect “instantaneous memory” (also known as “learning”), drosophilae were transferred to the selection area in the T maze immediately after training and forced to choose between the two odors. The drosophilae in each T-maze arm were then captured, anesthetized, and counted. The behavior index was calculated from the distribution of drosophilae in the T maze. […] In each experiment, the age of the control group was matched with that of the experimental group.
Pharmacodynamic evaluation of the candidate compounds: Drosophilae containing and expressing human Abeta42 gene were selected as a diseased control, and drosophilae containing but not expressing human Abeta42 gene were selected as a healthy control. The day after emergence of the drosophilae, male drosophilae were selected and fed. Starting from the third day, drosophilae were fed with a test medicament (100 μM, 50 μL per 100 drosophilae) for 7 consecutive days, 4 hours each day. The above memory test was performed on the drosophilae on the tenth day.

[2] = test system: Drosophilae containing and expressing human Abeta42 gene; experiment: as above; format: in vivo; settings: FIG. 3; with increase of dosage; compared with positive compound memantine hydrochloride
[3] = test system: Transgenic mice containing APP/PS1; experiment: Water maze test of spatial memory in mice; format: in vivo
Method: Transgenic mice containing APP/PS1 were purchased from the Jackson Laboratory of the USA. The transgenic mice were crossbred with B6/C3 background mice. Their offspring were self-bred, genotyped, and each fed in a separate cage for about 8 months. One week before the test, a prescribed dose of medicament was administered to the mice by gavage each day, and then the spatial memory of the mice was measured by water maze test. A water tank with a diameter of 1.5 meters was filled with water at a constant temperature of 25 degrees, and skim milk was added to render the water surface opaque. A transparent platform was placed in a specific quadrant of the water tank. Distant hints were provided as spatial reference. The mice were put into the water and allowed to swim until they found the platform under the surface of water. The whole process was tracked by software, and the time from launching to finding the platform, called a latent period, was recorded thereby. If a mouse could not find the platform within 60 seconds, it was manually guided to the platform and its latent period was recorded as 60 seconds. Four rounds of the above tests were carried out on each mouse every day, with a one-hour interval between every two rounds of tests for the mice to rest. The latent period of each mouse on a day was the average of the four rounds of tests on the same day.

hERG potassium channel = hERG potassium channel (Homo sapiens, UniProt Q12809); experiment: hERG current, whole-cell patch clamp on HEK-hERG stable cell line; format: cell-based
From the text: Rapidly activated human delayed rectifier outward potassium current (IKr) is mainly mediated by hERG ion channels, and participates in human cardiomyocyte repolarization. Pharmaceutical blockade of this current is the main cause of prolonged QT syndrome, even acute arrhythmia and sudden death clinically.
In this experiment, a stable cell line HEK-hERG (from the Academy of Military Medical Sciences) was selected, and the whole-cell patch clamp technique was used to record the hERG current. Cell suspension was collected and added to a 35 mm culture dish, which was placed on an inverted microscope carrier. After cell attachment, perfusion was performed with an extracellular fluid at a flow rate of 1-2 mL/min. A glass microelectrode was drawn in two steps by a micropipette puller, and after filling with electrode inner fluid, the water resistance of the glass microelectrode was 2-5 MΩ. After the whole cell recording mode was established, the clamping potential was maintained to −80 mV. A depolarization voltage was exerted to +60 mV for 850 ms, followed by repolarization to −50 mV for 1275 ms to induce an hERG tail current. After current stabilization, continuous extracellular perfusion administration from a low concentration to a high concentration was adopted. Starting from the low concentration, continuous perfusion was performed until the efficacy was stable, followed by perfusion of the next concentration. When the inhibitory rate of a compound or positive control to the hERG current was less than 50%, the CV of each of five consecutive current values was less than 10%. When the inhibitory rate of a compound or positive control to the hERG current was more than 50% but less than 70%, the CV of each of five consecutive current values was less than 20%. If a current amplitude was reduced by less than 200 pA, or if the inhibitory rate was more than 70%, the CV of each of five consecutive current values was less than 30%.
A certain amount of a test sample was weighed and dissolved into DMSO to prepare a 30 mM stock solution. Prior to the experiment, the above stock solution was diluted by DMSO 10 times and 3 times step by step, and then the solution was diluted by extracellular fluid to a required concentration. The solution at working concentration should be checked for precipitation before use. If precipitation existed, the stock solution would be diluted to increase the final concentration of DMSO in the extracellular fluid. However, the final concentration of DMSO in the extracellular fluid would not exceed 0.5%. Continuous perfusion from low to high concentrations was done during the experiment. The half inhibitory concentration (IC50) of the test sample was obtained by the best fitting of Logistic equation.
When data were processed, stimulus release and signal acquisition were carried out by the software patchmaster; and a patch clamp amplifier amplified the signal and filtered it to 10 KHz. Fitmaster, excel, spass 21.0, and the like were used for further data analysis and curve fitting. The data were shown as mean values±standard deviation. In data processing, when the blocking effect on hERG was determined, the peak value of a tail current and its baseline were corrected. The inhibitory rates of the tail current were used to show the effects of various compounds at different concentrations. The inhibitory rate=100×(the peak value of the tail current before administration−the peak value of the tail current after administration)/the peak value of the tail current before administration %. IC50 values were fitted by the Hill equation:
[formula] wherein, y: I/Icontrol; max: 100%; min: 0%; [drug]: concentration of the test sample; nH: Hill slope; IC50: maximum half inhibition concentration of the test substance.
To induce a peak current of hERG tail current, the clamping potential was maintained at −80 mV, depolarized to 60 mV for 0.85 s, and then repolarized to −50 mV for 1.275 s. […]

[4] = human, Inhibitory effect, Mean value ± standard deviation
[5] = human, Inhibitory effect, individual cells 1-4

Sequence of hERG potassium channel (Q12809 whole entry): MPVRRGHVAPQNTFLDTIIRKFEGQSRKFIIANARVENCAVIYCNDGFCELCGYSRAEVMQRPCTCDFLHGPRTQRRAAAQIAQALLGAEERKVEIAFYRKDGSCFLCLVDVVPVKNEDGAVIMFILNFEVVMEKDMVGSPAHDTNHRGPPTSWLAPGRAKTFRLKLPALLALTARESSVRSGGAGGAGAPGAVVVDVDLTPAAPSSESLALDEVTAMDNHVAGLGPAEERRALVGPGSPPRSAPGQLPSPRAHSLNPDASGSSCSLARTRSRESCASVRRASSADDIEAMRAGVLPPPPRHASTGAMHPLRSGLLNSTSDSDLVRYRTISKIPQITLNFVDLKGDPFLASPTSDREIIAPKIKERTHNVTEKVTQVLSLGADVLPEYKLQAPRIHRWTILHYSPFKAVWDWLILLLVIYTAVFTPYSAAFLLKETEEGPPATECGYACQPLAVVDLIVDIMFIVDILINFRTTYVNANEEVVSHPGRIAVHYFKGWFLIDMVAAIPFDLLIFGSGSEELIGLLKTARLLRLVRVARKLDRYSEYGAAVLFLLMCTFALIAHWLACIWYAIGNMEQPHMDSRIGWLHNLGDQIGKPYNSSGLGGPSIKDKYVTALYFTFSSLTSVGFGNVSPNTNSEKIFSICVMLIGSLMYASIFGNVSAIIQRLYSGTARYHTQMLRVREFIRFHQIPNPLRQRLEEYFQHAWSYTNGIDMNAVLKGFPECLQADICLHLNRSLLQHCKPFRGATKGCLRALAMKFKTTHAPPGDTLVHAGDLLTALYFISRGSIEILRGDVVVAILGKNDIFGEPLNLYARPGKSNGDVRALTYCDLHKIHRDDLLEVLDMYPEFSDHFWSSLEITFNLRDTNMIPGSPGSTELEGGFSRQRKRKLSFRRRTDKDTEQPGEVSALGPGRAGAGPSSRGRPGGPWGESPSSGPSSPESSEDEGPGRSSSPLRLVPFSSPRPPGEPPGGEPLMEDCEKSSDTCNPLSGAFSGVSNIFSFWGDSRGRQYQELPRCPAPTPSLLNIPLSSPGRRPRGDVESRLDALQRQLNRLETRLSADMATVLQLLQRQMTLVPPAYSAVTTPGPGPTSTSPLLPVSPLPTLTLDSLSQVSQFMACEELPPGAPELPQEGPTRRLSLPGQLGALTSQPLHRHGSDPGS

## O=C1C=C(OCc2ccc(F)cc2)[C@H](Cc2ccccc2)N1 [Compound 50561]
[1]
  ability to improve the learning and memory of drosophilae: best ability to improve the learning and memory of drosophilae
[2]
  dose-effect relationship to improve memory of drosophilae: eventually reaches or exceeds the level of the activity of the positive compound memantine hydrochloride
[3]; 0.1 mg/kg by gavage, FIG. 5
  ability to rescue the spatial memory of mice: no ability to rescue the spatial memory of mice
[3]; 1 mg/kg by gavage, FIG. 5
  ability to rescue the spatial memory of mice: no ability to rescue the spatial memory of mice
[3]; 10 mg/kg by gavage, FIG. 4
  ability to rescue the spatial memory of mice: good ability to rescue the spatial memory of mice
hERG potassium channel; Hill equation fit, N=4
  Hill coefficient: 1.01
hERG potassium channel; human
  IC50: 26.7 µM
hERG potassium channel; [4]
  inhibition at 300 nM: 0.84 ± 3.93%
  inhibition at 1 µM: 3.43 ± 4.42%
  inhibition at 3 µM: 11.3 ± 4.09%
  inhibition at 10 µM: 25.7 ± 1.31%
  inhibition at 30 µM: 53.6 ± 3.6%
hERG potassium channel; [5]
  inhibition at 10 µM: 24.1%
  inhibition at 30 µM: 59.6%
